Test results reported in PMC6481325, “Novel N,N-dialkyl cyanocinnamic acids as monocarboxylate transporter 1 and 4 inhibitors” (Oncotarget, 2019).
“Also recorded” adds a separate entry of the source. Like-named read-outs stand apart in the source and are kept apart here.

Tests used:
[1] = biological target: T1, MCT4 (Homo sapiens, UniProt O15427); test: L-[14C]-lactate uptake study in MCT4 expressing MDA-MB-231 cells; assay type: cell-based; conditions: read-out: MCT4 IC50
T1 construct: These cells predominantly express MCT4 as confirmed by Western blot and quantitative PCR analysis; host or cells: MDA-MB-231
T1 sequence (O15427 2-465 limits assumed): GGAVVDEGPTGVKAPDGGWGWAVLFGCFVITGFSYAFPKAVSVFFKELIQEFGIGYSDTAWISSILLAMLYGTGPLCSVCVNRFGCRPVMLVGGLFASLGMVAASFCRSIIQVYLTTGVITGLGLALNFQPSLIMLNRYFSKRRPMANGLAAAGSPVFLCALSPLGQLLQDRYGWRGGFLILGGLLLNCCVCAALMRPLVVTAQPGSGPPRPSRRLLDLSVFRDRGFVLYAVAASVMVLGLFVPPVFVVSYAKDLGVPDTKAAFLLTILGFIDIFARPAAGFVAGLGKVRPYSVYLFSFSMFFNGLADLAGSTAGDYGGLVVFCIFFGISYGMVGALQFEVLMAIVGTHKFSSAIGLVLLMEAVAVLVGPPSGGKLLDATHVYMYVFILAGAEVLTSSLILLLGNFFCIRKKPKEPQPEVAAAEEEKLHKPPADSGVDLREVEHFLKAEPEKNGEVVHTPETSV
T1 sequence (P35613 140-385 partner limits assumed): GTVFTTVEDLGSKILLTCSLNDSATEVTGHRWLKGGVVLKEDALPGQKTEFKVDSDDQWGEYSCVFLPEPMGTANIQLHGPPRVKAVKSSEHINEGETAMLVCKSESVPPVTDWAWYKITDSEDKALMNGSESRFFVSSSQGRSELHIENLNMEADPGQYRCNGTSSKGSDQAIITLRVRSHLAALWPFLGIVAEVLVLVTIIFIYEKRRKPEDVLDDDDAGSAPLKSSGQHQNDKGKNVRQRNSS
Procedure: In this study, an L-[^14C]-lactate based transport assay was developed by us to quantify MCT4 transport and its inhibition by test compounds. […] For the MCT4 transport assay, the pH of HEPES buffer with L-[^14C]-lactate was adjusted to 7.0 such that lactate influx into the cells was aided by the pH gradient. […] Test compounds were diluted to working concentration in HEPES buffer (140 mM NaCl, 5 mM KCl, 2 mM CaCl2, 2 mM MgCl2, 10 mM HEPES, pH 7.0) containing 3 μM L-[^14C]-lactate (Perkin Elmer) and 2 μM L-lactate. […] HEPES buffer was replaced with 250 μL test solution. After 1 hour, media was replaced with 500 μL ice-cold stop buffer (0.1 mM CHC solution in HBS, pH 7.4) and the plates were placed on ice. Cells were washed twice with ice-cold stop buffer and solubilized using 250 μL of 0.1 M NaOH in 5% Triton-X (Millipore Sigma). A 150 μL aliquot from each well was added to 4 mL EcoLite(+)™ scintillation fluid (MP Biomedicals) and radioactivity was determined by scintillation spectrometry. Inhibition by each test solution was calculated as a percentage of the maximum control uptake. CHC and dimethylsulfoxide (DMSO) were used as controls. […]

[2] = test system: MCT4 expressing MDA-MB-231 cells; test: Seahorse XFe96 glycolysis stress test (ECAR), MDA-MB-231; assay type: cell-based; conditions: 30 μM
Procedure: (§1) In the GST, three parameters namely glycolysis, glycolytic capacity and glycolytic reserve were measured.
(§2) Extracellular acidification rates (ECAR) and oxygen consumption rates (OCR) were recorded in real-time for glycolysis stress test (GST) and mitochondrial stress test (MST), respectively, using Agilent Seahorse XFe96® analyzer.

[3] = test system: MCT1 expressing WiDr cells; test: Seahorse XFe96 glycolysis stress test (ECAR), WiDr; assay type: cell-based; conditions: 30 μM
Procedure: as §1, §2

[4] = test system: MDA-MB-231 tumor xenograft; test: Tumor growth inhibition, MDA-MB-231 xenograft model; assay type: in vivo; conditions: SCID mice
Procedure: Figure 6 In vivo xenograft studies in WiDr and MDA-MB-231 tumor models (A) WiDr tumor xenograft study of compound 3 and compound 9. Mice (n = 8) were treated with 8 mg/kg of compound 3, intraperitoneally, two times a day. (B) Tumor growth inhibition study with compound 9 in MDA-MB-231 tumor xenograft model (n = 6). Mice were treated with compound 9 (70 mg/kg, ip, bid until day-4; qd from day-5), a combination of 9 and doxorubicin (0.5 mg/kg, ip, five days a week), and doxorubicin. (C) Tumor growth inhibition based on isolated tumor mass. ^*P < 0.05, ^**P < 0.01, ^***P < 0.001, ^****P < 0.0001. Schematic representation of (D) untreated tumor cells and (E) inhibition of MCT1 and MCT4 and decreased glycolysis and mitochondrial OxPhos in compound 9 treated tumor cells. Upward hollowed arrow indicates “increase” in function/amount and downward hollowed arrow indicates “decrease” in function/amount.
Group-1 was administered with compound 9, group-2 was given a combination of compound 9 and clinical breast cancer drug doxorubicin (AKSci catalog # E518), and group-3 was treated with doxorubicin alone. Group-4 was assigned as a control group and treated with vehicle (10% DMSO in saline). The treatment was continued up to 18 days and on day 20, the mice were euthanized and tumor masses isolated and weighed. […] Due to these reasons, higher dosages of compound 9 were required to produce significant anticancer efficacy in vivo. In all these studies, <20% of body weight loss was observed.
Tumor cells suspended in 1:1 matrigel-PBS were injected on right flank of female SCID mice (n = 6 mice/group, 10^7 MDA-MB-231 cells) or right flank of female athymic nude mice (n = 8 mice/group, 5 × 10^6 WiDr cells). Tumors were measured using calipers every 2–3 days and tumor volumes were calculated using the formula V = ab^2/2 where ‘a’ is the long diameter of the tumor and ‘b’ is the short diameter of the tumor. Tumor growth inhibition was determined using the formula % inhibition = [(C – T)/C] × 100 where C is average tumor weight of the control group and T is the average tumor weight of the test group.

[5] = test system: WiDr tumor xenograft; design: method as in ref 32, 33 = [32]; PMID 26005533; doi:10.1021/acsmedchemlett.5b00049; 32 Gurrapu S Jonnalagadda SK Alam MA Nelson GL Sneve MG Drewes LR Mereddy VR Monocarboxylate transporter 1 inhibitors as potential anticancer agents ACS Med Chem Lett 2015 6 558 61 10.1021/acsmedcheml || [33]; 33 Mereddy VR Drewes LR Alam MA Jonnalagadda SK Gurrapu S Therapeutic Compounds US 9296728B2 United States Patent and Trademark Office 2016 https://app.dimensions.ai/details/patent/US-9296728-B2; conditions: mice, three weeks; cited from earlier work

IC50 ([1]; Figure 1A and text, lactate uptake): 23 nM | IC50 ([1]; Supplementary Table 1, average ± SEM): 18 ± 8 nM
Compound: COc1cc(N(c2ccccc2)c2ccccc2)ccc1/C=C(\C#N)C(=O)O [Phenyl (9)]
glycolytic capacity (GST, ECAR) [2]: decreased | glycolytic reserve (GST, ECAR) [2]: completely arrested | glycolytic capacity (GST, ECAR) [3]: decreased; also recorded: significant decrease | glycolytic reserve (GST, ECAR) [3]: completely arrested; also recorded: significant decrease | tumor growth inhibition based on tumor volume ([4]; 9 70 mg/kg ip bid until day-4, qd from day-5, doxorubicin 0.5 mg/kg ip five days a week, treatment up to 18 days): 58% | tumor growth inhibition based on isolated tumor weights ([4]; same regimens, tumors isolated on day 20): 56% | tumor growth reduction [5]: 33%
